The text below walks through data of PubChem BioAssay AID1549 (Sanford-Burnham Center for Chemical Genomics, 2009).

Active and inactive are the calls of the source. No rule for the calls is given here.

For this experiment, the target named is Influenza A virus M2 proton channel (A/TW/4845/1999 H1N1). Briefly: NMR binding screen, influenza A virus M2 proton channel, Kd (AID 1549). The settings on record: M2 protein.
Take `O=C(O)Cc1nc(-c2ccncc2)n[nH]1`: the Kd is > 4 mM (inactive).
For `CNS(=O)(=O)c1cc(OC)ccc1OC` the value was > 4 mM (inactive).
Consider `CC(=O)NN1C(=O)/C(=C\c2ccc(O)cc2)SC1=S`, for which the Kd is > 4 mM (inactive).
For `CC(=O)NCC1OCCc2ccccc21` (stereo unspecified) the value was > 4 mM (inactive); for `NC1CSCC1O` (stereo unspecified), > 4 mM (inactive).
For `CC(=O)Nn1cc2c(=O)n(C)c(=O)n(C)c2c1` the value was > 4 mM (inactive); for `O=C1NC(=O)C(c2ccccc2)C(=O)N1`, > 4 mM (inactive).
For `CSc1nc(C)cc(-n2ccc(=O)[nH]c2=O)n1` the value was > 4 mM (inactive).
Take `COc1ccc([C@H]2Oc3c(I)c(OC)cc(OC)c3C[C@@H]2O)cc1OC`: the Kd is > 4 mM (inactive).
With `Cc1cc(=O)[nH]c(N)n1` the figure was > 4 mM (inactive); with `Cc1c(F)cccc1NS(=O)(=O)c1ccccc1C#N`, > 4 mM (inactive).
For `NCc1ccc(-c2csnn2)cc1` the value was > 4 mM (inactive); for `c1ccc(CCc2nc(-c3ccccn3)no2)cc1`, > 4 mM (inactive); for `O=C1NC(=O)C(C2SC(=O)NC2=O)S1` (stereo unspecified), > 4 mM (inactive).
With `CC(C)=CCC1=C(O)c2ccccc2C(=O)C1=O` the figure was > 4 mM (inactive); with `N#CCCn1ccnc1-c1ccccc1`, > 4 mM (inactive).
`CC(=O)O[C@H]1C[C@@H](OC(C)=O)C(C)(C)C2CC(=O)[C@]3(C)C(CC[C@@]4(C)[C@H](C(=O)O)OC(=O)C5OC543)[C@]21C` (stereo partly specified): the Kd is > 4 mM (inactive).
With `CN1C(=O)C2CC=C(Cl)CC2C1=O` (stereo unspecified), the Kd is > 4 mM (inactive).
`O=C(O)c1ccc(N2CCOCC2)cc1`: the Kd was > 4 mM (inactive).
Turning to `Cc1cc(C)n(-c2nc(N)cc(=O)[nH]2)n1`, the Kd was > 4 mM (inactive).
With `NC1CS(=O)(=O)CC1O` (stereo unspecified), the Kd is > 4 mM (inactive).
For `Nc1ncccc1OCc1ccccc1` the value was > 4 mM (inactive); for `CC(C)(O)[C@@H]1[C@H]2OC(=O)[C@@H]1[C@]1(O)C[C@H]3O[C@]34C(=O)O[C@H]2[C@]14C`, > 4 mM (inactive); for `CC(=O)Oc1ccc2c(c1OC(C)=O)OCC1(O)Cc3c(cc(OC(C)=O)c(OC(C)=O)c3OC(C)=O)C21` (stereo unspecified), > 4 mM (inactive).
Consider `CN1CCN(c2cc(=O)n(C)c(=O)[nH]2)CC1`, for which the Kd was > 4 mM (inactive).
For `Cc1nn2c(-c3ccco3)nnc2c2ccccc12` the value was > 4 mM (inactive); for `O=C(Nc1ccccc1)NC1CCS(=O)(=O)C1` (stereo unspecified), > 4 mM (inactive); for `NC(=O)C1CCN(Cc2ccccc2)CC1`, > 4 mM (inactive).
With `CC(C)=CC1C(C(=O)O)C1(C)C` (stereo unspecified) the figure was > 4 mM (inactive); with `Cc1cc(NC(=O)c2ccc3c(c2)OCCO3)no1`, > 4 mM (inactive); with `CC(C)NC(=O)c1cc(=O)n(C)c(=O)n1C`, > 4 mM (inactive).
Regarding `CCc1ccccc1NC(=O)c1cnccn1`, the Kd is > 4 mM (inactive).
For `Cc1ccc(NC(=O)C(=O)Nc2ccccn2)cc1` the value was > 4 mM (inactive); for `CN(C)c1ccc(/C=C2/NC(=S)NC2=O)cc1`, > 4 mM (inactive).
For `COc1ccc(C(=O)CC(=O)O)c2c1C=CC(C)(C)O2` the value was > 4 mM (inactive); for `CC(O)(C(=O)O)c1ccccc1` (stereo unspecified), > 4 mM (inactive).
For `COc1c(C)c2c(c(O)c1C/C=C(\C)CCC(=O)O)C(=O)OC2` the value was > 4 mM (inactive); for `Cc1cc(NC(=O)c2c(F)c(F)c(F)c(F)c2F)no1`, > 4 mM (inactive); for `O=C1C[C@@H](c2ccccc2)Oc2cc(O)cc(O)c21`, > 4 mM (inactive).
Take `CC(NC(=O)c1ccco1)C1CCCO1` (stereo unspecified): the Kd was > 4 mM (inactive).
For `COCc1cc(C)nc2sc(C(=O)OC)c(N)c12` the value was > 4 mM (inactive).
